# Test results taken from patent US9169254B2, “Spiroimidazolone derivative” (Chugai Seiyaku Kabushiki Kaisha, priority 2009, dated 2015).
# Molecular target: T1, human PTH1 receptor (Homo sapiens, UniProt Q03431)
# T1 sequence (Q03431 27-593): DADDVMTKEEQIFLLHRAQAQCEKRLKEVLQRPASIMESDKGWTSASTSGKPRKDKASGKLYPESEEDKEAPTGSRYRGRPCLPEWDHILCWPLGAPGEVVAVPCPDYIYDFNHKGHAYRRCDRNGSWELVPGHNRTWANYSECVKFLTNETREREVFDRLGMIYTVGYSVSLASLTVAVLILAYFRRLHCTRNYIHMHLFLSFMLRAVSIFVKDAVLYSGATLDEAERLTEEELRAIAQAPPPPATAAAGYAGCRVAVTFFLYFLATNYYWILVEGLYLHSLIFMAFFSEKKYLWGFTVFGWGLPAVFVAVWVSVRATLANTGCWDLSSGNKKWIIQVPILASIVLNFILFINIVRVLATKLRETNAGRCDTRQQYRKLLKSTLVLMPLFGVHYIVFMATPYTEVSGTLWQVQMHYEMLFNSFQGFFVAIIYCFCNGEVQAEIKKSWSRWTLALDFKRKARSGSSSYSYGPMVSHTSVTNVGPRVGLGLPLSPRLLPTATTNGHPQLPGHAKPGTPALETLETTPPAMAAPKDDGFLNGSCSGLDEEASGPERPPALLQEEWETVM
# Assay: In vitro cAMP signal activity in HKRK-B7 cells (LLC-PK1 cells overexpressing the human PTH1 receptor)
# Assay type: cell-based
# Conditions: 0.1 µM
row,Compound,cAMP production activity (%)
1,"Cc1cc(S(=O)(=O)NCC(F)(F)C(F)(F)C(F)(F)F)ccc1CCS(=O)(=O)N1CCC2(CC1)N=C(c1cccc(C(F)(F)F)c1)NC2=O [Compound 667, N-(2,2,3,3,4,4,4-Heptafluoro-butyl)-3-methyl-4-{2-[4-oxo-2-(3-trifluoromethyl-phenyl)-1,3,8-triaza-spiro[4.5]dec-1-ene-8-sulfonyl]-ethyl}-benzenesulfonamide]",40

# Same assay, conditions: HKRK-B7 cells; compound at 1×10^−3 M; […]; 0.1 µM
row,Compound,cAMP production activity (%)
1,"Cc1cc(N(C)C(=O)NCCN(C)C)ccc1/C=C/S(=O)(=O)N1CCC2(CC1)N=C(c1cccc(OC(F)(F)F)c1)NC2=O [Compound 457, 3-(2-Dimethylamino-ethyl)-1-methyl-1-(3-methyl-4-{(E)-2-[4-oxo-2-(3-trifluoromethoxy-phenyl)-1,3,8-triaza-spiro[4.5]dec-1-ene-8-sulfonyl]-vinyl}-phenyl)-urea]",25

# Same assay, conditions: HKRK-B7 cells; compound at 1×10^−3 M; cAMP produced as percentage of that produced by hPTH(1-34) at 100 nM
row,cAMP production activity (%),Compound
1,86,"CC(=O)N(c1ccc(CCS(=O)(=O)N2CCC3(CC2)N=C(c2cccc(OC(F)(F)F)c2)NC3=O)c(C)c1)C1CCCC1 [Compound 678, N-Cyclopentyl-N-(3-methyl-4-{2-[4-oxo-2-(3-trifluoromethoxy-phenyl)-1,3,8-triaza-spiro[4.5]dec-1-ene-8-sulfonyl]-ethyl}-phenyl)-acetamide]"
2,74,"CC(=O)NCc1cc(C)c(/C=C/S(=O)(=O)N2CCC3(CC2)N=C(C2CCC(CCC(F)(F)F)CC2)NC3=O)c(C)c1 (stereo not drawn) [Compound 558, N-[3,5-dimethyl-4-((E)-2-{4-oxo-2-[4-(3,3,3-trifluoro-propyl)-cyclohexyl]-1,3,8-triaza-spiro[4.5]dec-1-ene-8-sulfonyl}-vinyl)-benzyl]-acetamide]"
3,100,"Cc1cc(N2C(=O)NC(C)(C)C2=O)ccc1CCS(=O)(=O)N1CCC2(CC1)N=C(C1CCC(CCC(F)(F)F)CC1)NC2=O (stereo not drawn) [Compound 864, 5,5-dimethyl-3-[3-methyl-4-(2-{4-oxo-2-[4-(3,3,3-trifluoro-propyl)-cyclohexyl]-1,3,8-triaza-spiro[4.5]dec-1-ene-8-sulfonyl}-ethyl)-phenyl]-imidazolidine-2,4-dione]"
4,95,"Cc1cc(C(=O)N2CCC(O)(CF)CC2)cc(C)c1CCS(=O)(=O)N1CCC2(CC1)N=C(c1ccc3c(c1)OC(F)(F)C(F)(F)O3)NC2=O [Compound 1281, 8-{2-[4-(4-fluoromethyl-4-hydroxy-piperidine-1-carbonyl)-2,6-dimethyl-phenyl]-ethanesulfonyl}-2-(2,2,3,3-tetrafluoro-2,3-dihydro-benzo[1,4]dioxin-6-yl)-1,3,8-triaza-spiro[4.5]dec-1-en-4-one]"
5,74,"CC(=O)Nc1ccc(CCS(=O)(=O)N2CCC3(CC2)N=C(C2CCC(CC(C)F)CC2)NC3=O)c(C)c1 (stereo not drawn) [Compound 1077, N-[4-(2-{2-[4-(2-fluoro-propyl)-cyclohexyl]-4-oxo-1,3,8-triaza-spiro[4.5]dec-1-ene-8-sulfonyl}-ethyl)-3-methyl-phenyl]-acetamide]"
6,71,"Cc1cc(CN2C(=O)CCC2=O)cc(C)c1CCS(=O)(=O)N1CCC2(CC1)N=C(C1CCC(CCC(F)(F)F)CC1)NC2=O (stereo not drawn) [Compound 777, 1-[3,5-dimethyl-4-(2-{4-oxo-2-[4-(3,3,3-trifluoro-propyl)-cyclohexyl]-1,3,8-triaza-spiro[4.5]dec-1-ene-8-sulfonyl}-ethyl)-benzyl]-pyrrolidine-2,5-dione]"
7,44,"Cc1cc(C(=O)N2CC(O)C2)cc(C)c1CCS(=O)(=O)N1CCC2(CC1)N=C(c1ccc(F)c(OC(F)(F)F)c1)NC2=O [Compound 1337, 2-(4-fluoro-3-trifluoromethoxy-phenyl)-8-{2-[4-(3-hydroxy-azetidine-1-carbonyl)-2,6-dimethyl-phenyl]-ethanesulfonyl}-1,3,8-triaza-spiro[4.5]dec-1-en-4-one]"
8,85,"CCCCC1CCC(C2=NC3(CCN(S(=O)(=O)CCc4ccc(C(=O)N(C)C)cc4C)CC3)C(=O)N2)CC1 (stereo not drawn) [Compound 894, 4-{2-[2-(4-butyl-cyclohexyl)-4-oxo-1,3,8-triaza-spiro[4.5]dec-1-ene-8-sulfonyl]-ethyl}-3,N,N-trimethyl-benzamide]"
9,99,"Cc1cc(C(=O)N2CCC(C)(O)CC2)cc(C)c1CCS(=O)(=O)N1CCC2(CC1)N=C(c1ccc(C(F)(F)F)c(Cl)c1)NC2=O [Compound 1236, 2-(3-chloro-4-trifluoromethyl-phenyl)-8-{2-[4-(4-hydroxy-4-methyl-piperidine-1-carbonyl)-2,6-dimethyl-phenyl]-ethanesulfonyl}-1,3,8-triaza-spiro[4.5]dec-1-en-4-one]"
10,94,"Cc1cc(C(=O)N2CC(O)C2)cc(C)c1/C=C/S(=O)(=O)N1CCC2(CC1)N=C(c1cccc(C(F)(F)F)c1)NC2=O [Compound 385, 8-{(E)-2-[4-(3-hydroxy-azetidine-1-carbonyl)-2,6-dimethyl-phenyl]-ethenesulfonyl}-2-(3-trifluoromethyl-phenyl)-1,3,8-triaza-spiro[4.5]dec-1-en-4-one]"
11,78,"Cc1cc(N(C)C(N)=O)cc(C)c1CCS(=O)(=O)N1CCC2(CC1)N=C(CCCCCCCCC(F)F)NC2=O [Compound 1323, 1-(4-{2-[2-(9,9-Difluoro-nonyl)-4-oxo-1,3,8-triaza-spiro[4.5]dec-1-ene-8-sulfonyl]-ethyl}-3,5-dimethyl-phenyl)-1-methyl-urea]"

# Continued, compound first:
row,Compound,cAMP production activity (%)
1,"Cc1cc(N2CCC2=O)ccc1/C=C/S(=O)(=O)N1CCC2(CC1)N=C(C1CCCCC1)NC2=O [Compound 572, 2-cyclohexyl-8-{(E)-2-[2-methyl-4-(2-oxo-azetidin-1-yl)-phenyl]-ethenesulfonyl}-1,3,8-triaza-spiro[4.5]dec-1-en-4-one]",36
2,"CC(=O)Nc1ccc(CCS(=O)(=O)N2CCC3(CC2)N=C(C2CCC(COC(C)C)CC2)NC3=O)c(C)c1 (stereo not drawn) [Compound 913, N-(4-{2-[2-(4-isopropoxymethyl-cyclohexyl)-4-oxo-1,3,8-triaza-spiro[4.5]dec-1-ene-8-sulfonyl]-ethyl}-3-methyl-phenyl)-acetamide]",81
3,"CC(=O)N(C)c1ccc(/C(F)=C\S(=O)(=O)N2CCC3(CC2)N=C(C2CCC(C)CC2)NC3=O)c(C)c1 (stereo not drawn) [Compound 942, N-(4-{(E)-1-Fluoro-2-[2-(4-methyl-cyclohexyl)-4-oxo-1,3,8-triaza-spiro[4.5]dec-1-ene-8-sulfonyl]-vinyl}-3-methyl-phenyl)-N-methyl-acetamide]",31
4,"Cc1cc(N(C)C(N)=O)cc(C)c1CCS(=O)(=O)N1CCC2(CC1)N=C(CCCCCCCCCCCC(N)=O)NC2=O [Compound 1174, 12-(8-{2-[2,6-dimethyl-4-(1-methyl-ureido)-phenyl]-ethanesulfonyl}-4-oxo-1,3,8-triaza-spiro[4.5]dec-1-en-2-yl)-dodecanoic acid amide]",91
5,"Cc1cc(N(C)C(N)=O)cc(C)c1CCS(=O)(=O)N1CCC2(CC1)N=C(C1CCC(C)CC1)N/C2=N/O (stereo not drawn) [Compound 1371, 1-(4-{2-[4-[(E)-Hydroxyimino]-2-(4-methyl-cyclohexyl)-1,3,8-triaza-spiro[4.5]dec-1-ene-8-sulfonyl]-ethyl}-3,5-dimethyl-phenyl)-1-methyl-urea]",84
6,"CCC1CCC(C2=NC3(CCN(S(=O)(=O)CCc4ccc(C(=O)N5CCN(C6COC6)CC5)cc4C)CC3)C(=O)N2)CC1 (stereo not drawn) [Compound 976, 2-(4-ethyl-cyclohexyl)-8-{2-[2-methyl-4-(4-oxetan-3-yl-piperazine-1-carbonyl)-phenyl]-ethanesulfonyl}-1,3,8-triaza-spiro[4.5]dec-1-en-4-one]",73
7,"Cc1cc(N(C)C(N)=O)cc(C)c1CCS(=O)(=O)N1CCC2(CC1)N=C(c1ccc(OCCCC(F)(F)F)cc1)NC2=O [Compound 1339, 1-[3,5-dimethyl-4-(2-{4-oxo-2-[4-(4,4,4-trifluoro-butoxy)-phenyl]-1,3,8-triaza-spiro[4.5]dec-1-ene-8-sulfonyl}-ethyl)-phenyl]-1-methyl-urea]",86
8,"Cc1cc(C(=O)N2CCC(C)(O)CC2)cc(C)c1/C=C/S(=O)(=O)N1CCC2(CC1)N=C(C1CCC(C)CC1)NC2=O (stereo not drawn) [Compound 999, 8-{(E)-2-[4-(4-hydroxy-4-methyl-piperidine-1-carbonyl)-2,6-dimethyl-phenyl]-ethenesulfonyl}-2-(4-methyl-cyclohexyl)-1,3,8-triaza-spiro[4.5]dec-1-en-4-one]",61
9,"O=C(CO)NCc1ccc(/C=C/S(=O)(=O)N2CCC3(CC2)N=C(C2CCCCC2)NC3=O)cc1 [Compound 489, N-{4-[(E)-2-(2-cyclohexyl-4-oxo-1,3,8-triaza-spiro[4.5]dec-1-ene-8-sulfonyl)-vinyl]-benzyl}-2-hydroxy-acetamide]",37
10,"Cc1cc(OCCC(O)CO)cc(C)c1CCS(=O)(=O)N1CCC2(CC1)N=C(c1cccc(OC(F)(F)F)c1)NC2=O (stereo not drawn) [Compound 676, 8-{2-[4-(3,4-dihydroxy-butoxy)-2,6-dimethyl-phenyl]-ethanesulfonyl}-2-(3-trifluoromethoxy-phenyl)-1,3,8-triaza-spiro[4.5]dec-1-en-4-one]",69
11,Cc1cc2ccc1CCS(=O)(=O)N1CCC3(CC1)N=C(NC3=O)c1cc(cc(C(F)(F)F)c1)OCCCCCOCCN(C)C2=O [Compound 1421],49
